Laboratory results as given in US20210323913A1, “SIGMA RECEPTOR BINDERS” (BOARD OF REGENTS, THE UNIVERSITY OF TEXAS SYSTEM, priority 2016, published 2021).
Where two headings read alike, the source gives them in different places.

Key:
5-HT2C = target: T1, 5-HT2C (Homo sapiens, UniProt P28335); test: Radioligand competition binding, 5-HT2C; settings: Table 5; Cheng-Prusoff from best fit IC50
T1 sequence (P28335 33-458): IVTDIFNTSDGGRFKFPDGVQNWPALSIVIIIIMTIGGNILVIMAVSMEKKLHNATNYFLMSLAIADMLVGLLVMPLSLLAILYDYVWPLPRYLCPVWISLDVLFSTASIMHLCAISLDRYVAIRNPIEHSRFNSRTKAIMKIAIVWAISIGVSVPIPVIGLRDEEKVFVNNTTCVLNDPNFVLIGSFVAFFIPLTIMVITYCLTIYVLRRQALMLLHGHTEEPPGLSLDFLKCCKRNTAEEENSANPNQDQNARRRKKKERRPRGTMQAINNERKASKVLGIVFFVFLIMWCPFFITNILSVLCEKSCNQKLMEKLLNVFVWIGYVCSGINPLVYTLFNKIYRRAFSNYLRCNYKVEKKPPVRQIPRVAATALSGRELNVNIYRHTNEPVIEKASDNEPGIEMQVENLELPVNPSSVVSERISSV

Alpha2A = target: T2, Alpha2A (Homo sapiens, UniProt P08913); test: Radioligand competition binding, Alpha2A; settings: Table 5; Cheng-Prusoff from best fit IC50
T2 sequence (P08913 1-465): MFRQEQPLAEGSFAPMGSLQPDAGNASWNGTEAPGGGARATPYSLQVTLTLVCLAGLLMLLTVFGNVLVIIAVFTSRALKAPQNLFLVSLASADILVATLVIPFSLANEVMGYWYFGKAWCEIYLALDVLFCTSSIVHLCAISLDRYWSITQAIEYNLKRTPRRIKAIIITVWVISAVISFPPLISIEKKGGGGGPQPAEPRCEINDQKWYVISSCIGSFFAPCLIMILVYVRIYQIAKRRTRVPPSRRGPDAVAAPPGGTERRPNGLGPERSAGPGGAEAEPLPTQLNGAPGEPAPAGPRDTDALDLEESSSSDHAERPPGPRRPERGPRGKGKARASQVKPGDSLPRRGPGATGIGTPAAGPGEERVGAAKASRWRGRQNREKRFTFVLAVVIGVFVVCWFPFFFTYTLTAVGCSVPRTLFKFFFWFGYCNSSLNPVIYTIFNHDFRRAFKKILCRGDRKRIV

Alpha1A = Alpha1A (Homo sapiens, UniProt P35348); test: Radioligand competition binding, Alpha1A; settings: Table 5; Cheng-Prusoff from best fit IC50
5-HT1B = 5-HT1B (Homo sapiens, UniProt P28222); test: Radioligand competition binding, 5-HT1B; settings: Table 5; Cheng-Prusoff from best fit IC50
sigma 2 receptor = sigma 2 receptor (Homo sapiens, UniProt Q5BJF2); test: Sigma 2 receptor radioligand competition binding; settings: for Ki ratio Sig1R/Sig2R: Table 1, ratio of Sig1R Ki to Sig2R Ki
Alpha2B = Alpha2B (Homo sapiens, UniProt P18089); test: Radioligand competition binding, Alpha2B; settings: Table 5; Cheng-Prusoff from best fit IC50
D1 = D1 (Homo sapiens, UniProt P21728); test: Radioligand competition binding, D1; settings: Table 5; Cheng-Prusoff from best fit IC50; some values marked (AVE)
D3 = D3 (Homo sapiens, UniProt P35462); test: Radioligand competition binding, D3; settings: Table 5; Cheng-Prusoff from best fit IC50; one value marked (AVE)
H4 = H4 (Homo sapiens, UniProt Q9H3N8); test: Radioligand competition binding, H4; settings: Table 5; Cheng-Prusoff from best fit IC50; value marked (AVE)
PBR = PBR (UniProt P16257); test: Radioligand competition binding, PBR; settings: Table 5; Cheng-Prusoff from best fit IC50; one value marked (AVE)
D4 = target: T3, D4 (Homo sapiens, UniProt P21917); test: Radioligand competition binding, D4; settings: Table 5; Cheng-Prusoff from best fit IC50
T3 sequence (P21917 1-419): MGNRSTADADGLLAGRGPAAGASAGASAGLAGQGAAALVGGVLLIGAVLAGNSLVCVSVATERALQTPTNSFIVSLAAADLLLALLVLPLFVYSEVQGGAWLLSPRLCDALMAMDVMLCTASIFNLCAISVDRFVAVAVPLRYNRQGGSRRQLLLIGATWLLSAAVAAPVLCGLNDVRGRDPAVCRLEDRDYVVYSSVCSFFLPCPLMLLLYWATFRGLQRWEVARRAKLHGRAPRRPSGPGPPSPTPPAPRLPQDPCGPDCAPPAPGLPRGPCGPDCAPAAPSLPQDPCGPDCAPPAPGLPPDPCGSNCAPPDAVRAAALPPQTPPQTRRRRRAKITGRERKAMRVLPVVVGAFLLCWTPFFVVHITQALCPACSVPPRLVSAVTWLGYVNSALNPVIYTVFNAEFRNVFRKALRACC

Alpha1D = Alpha1D (Homo sapiens, UniProt P25100); test: Radioligand competition binding, Alpha1D; settings: Table 5; Cheng-Prusoff from best fit IC50
5-HT1D = 5-HT1D (Homo sapiens, UniProt P28221); test: Radioligand competition binding, 5-HT1D; settings: Table 5; Cheng-Prusoff from best fit IC50
5-HT1A = target: T4, 5-HT1A (Homo sapiens, UniProt P08908); test: Radioligand competition binding, 5-HT1A; settings: Table 5; Cheng-Prusoff from best fit IC50
T4 sequence (P08908 1-422): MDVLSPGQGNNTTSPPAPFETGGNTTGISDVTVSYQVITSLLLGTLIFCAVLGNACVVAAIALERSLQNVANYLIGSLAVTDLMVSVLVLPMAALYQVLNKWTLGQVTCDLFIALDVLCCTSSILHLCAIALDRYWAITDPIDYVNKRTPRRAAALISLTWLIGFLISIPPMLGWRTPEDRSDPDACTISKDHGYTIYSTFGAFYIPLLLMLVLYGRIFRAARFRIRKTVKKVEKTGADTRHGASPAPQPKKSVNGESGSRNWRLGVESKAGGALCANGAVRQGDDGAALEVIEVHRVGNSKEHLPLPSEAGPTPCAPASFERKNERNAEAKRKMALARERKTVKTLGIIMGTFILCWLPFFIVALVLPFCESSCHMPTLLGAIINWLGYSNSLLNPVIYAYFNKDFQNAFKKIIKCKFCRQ

M5 = M5 (Homo sapiens, UniProt P08912); test: Radioligand competition binding, M5; settings: Table 5; Cheng-Prusoff from best fit IC50
5-HT2B = 5-HT2B (Homo sapiens, UniProt P41595); test: Radioligand competition binding, 5-HT2B; settings: Table 5; Cheng-Prusoff from best fit IC50
H3 = H3 (Homo sapiens, UniProt Q9Y5N1); test: Radioligand competition binding, H3; settings: Table 5; Cheng-Prusoff from best fit IC50
sigma 1 receptor = sigma 1 receptor (Homo sapiens, UniProt Q99720); test: Sigma 1 receptor radioligand competition binding; settings: Table 1, 7-piperazinyl-tetrahydronaphthalene analogs; read-out: Ki (nM) Sig1R
5-HT7 = 5-HT7 (Homo sapiens, UniProt P34969); test: Radioligand competition binding, 5-HT7; settings: Table 5; Cheng-Prusoff from best fit IC50
5-HT6 = 5-HT6 (Homo sapiens, UniProt P50406); test: Radioligand competition binding, 5-HT6; settings: Table 5; Cheng-Prusoff from best fit IC50
H1 = H1 (Homo sapiens, UniProt P35367); test: Radioligand competition binding, H1; settings: Table 5; Cheng-Prusoff from best fit IC50
5-HT2A = 5-HT2A (Homo sapiens, UniProt P28223); test: Radioligand competition binding, 5-HT2A; settings: Table 5; Cheng-Prusoff from best fit IC50
D5 = D5 (Homo sapiens, UniProt P21918); test: Radioligand competition binding, D5; settings: Table 5; Cheng-Prusoff from best fit IC50
H2 = H2 (Homo sapiens, UniProt P25021); test: Radioligand competition binding, H2; settings: Table 5; Cheng-Prusoff from best fit IC50
5-ht5a = 5-ht5a (Homo sapiens, UniProt P47898); test: Radioligand competition binding, 5-ht5a; settings: Table 5; Cheng-Prusoff from best fit IC50
M4 = M4 (Homo sapiens, UniProt P08173); test: Radioligand competition binding, M4; settings: Table 5; Cheng-Prusoff from best fit IC50; one value marked (AVE)
KOR = KOR (Homo sapiens, UniProt P41145); test: Radioligand competition binding, KOR; settings: Table 5; Cheng-Prusoff from best fit IC50; some values marked (AVE)
Alpha2C = Alpha2C (Homo sapiens, UniProt P18825); test: Radioligand competition binding, Alpha2C; settings: Table 5; Cheng-Prusoff from best fit IC50
D2 = D2 (Homo sapiens, UniProt P14416); test: Radioligand competition binding, D2; settings: Table 5; Cheng-Prusoff from best fit IC50
DAT = DAT (Homo sapiens, UniProt Q01959); test: Radioligand competition binding, DAT; settings: Table 5; Cheng-Prusoff from best fit IC50
[1] = Table 1, 7-piperazinyl-tetrahydronaphthalene analogs, read-out: Ki (nM) Sig2R
[2] = Table 5, Cheng-Prusoff from best fit IC50, read-out: Ki Sigma 2

Ki (sigma 2 receptor; [2]) [nM] | Ki (H1) [nM] | SMILES | Ki (5-HT2C) [nM] | Ki (Alpha2A) [nM] | Ki (Alpha1A) [nM] | Ki (5-HT1B) [nM] | Ki (sigma 2 receptor; [1]) [nM] | Ki ratio Sig1R/Sig2R (sigma 2 receptor) | Ki (D1) [nM] | Ki (D3) [nM] | Ki (PBR) [nM] | Ki (D4) [nM] | Ki (5-HT1D) [nM] | Ki (5-HT1A) [nM] | Ki (5-HT2B) [nM] | Ki (sigma 1 receptor) [nM] | Ki (5-HT7) [nM] | Ki (5-HT6) [nM] | Ki (5-HT2A) [nM] | Ki (H2) [nM] | also measured
5.5 | 20 | CCCN1CCN(c2ccc3c(c2)C(N(C)C(=O)OCc2ccccc2)CCC3)CC1 (stereo not shown) [MDW-2-76, Benzyl methyl(7-(4-propylpiperazin-1-yl)-1,2,3,4-tetrahydronaphthalen-1-yl)carbamate] | 762 | 1030 | 2360 | 362 | 6 | 36 | 690 | 438 | 8330 | 6660 | 135 | 156 | 100 | 200 | 459 | 778 | 315 | 302 | Ki (Alpha2B): 3330 nM; Ki (H4): 5880 nM; Ki (Alpha1D): 2600 nM; Ki (M5): 6620 nM; Ki (H3): 1350 nM; Ki (D5): 3960 nM
522 | 182 | CN(Cc1cc(Cl)cc(Cl)c1)C1CCCc2ccc(N3CCOCC3)cc21 (stereo not shown) [MDW-1-131, N-(3,5-dichlorobenzyl)-N-methyl-7-morpholino-1,2,3,4-tetrahydronaphthalen-1-amine] | – | – | – | – | – | – | – | 3390 | 902 | – | – | – | – | – | – | – | – | – | Ki (Alpha2C): 2540 nM
– | – | CCCN(C(=O)OCc1ccccc1)C1CCCc2ccc(N3CCN(CCC(=O)OCC)CC3)cc21 (stereo not shown) [MDW-1-191, Ethyl 3-(4-(8-(((benzyloxy)carbonyl)(propyl)amino)-5,6,7,8-tetrahydronaphthalen-2-yl)piperazin-1-yl)propanoate] | – | – | 1410 | 441 | 19 | 124 | – | 315 | 1670 | 1720 | 1140 | 569 | 771 | 2360 | 891 | 1560 | 1730 | 1290 | Ki (5-ht5a): 1530 nM; Ki (D2): 2410 nM; Ki (DAT): > 10000 nM

SMILES | Ki (sigma 2 receptor; [2]) [nM] | Ki (H1) [nM] | Ki (5-HT2C) [nM] | Ki (Alpha2A) [nM] | Ki (Alpha1A) [nM] | Ki (5-HT1B) [nM] | Ki (sigma 2 receptor; [1]) [nM] | Ki ratio Sig1R/Sig2R (sigma 2 receptor) | Ki (D1) [nM] | Ki (D3) [nM] | Ki (PBR) [nM] | Ki (D4) [nM] | Ki (5-HT1D) [nM] | Ki (5-HT1A) [nM] | Ki (5-HT2B) [nM] | Ki (sigma 1 receptor) [nM] | Ki (5-HT7) [nM] | Ki (5-HT6) [nM] | Ki (5-HT2A) [nM] | Ki (H2) [nM] | also measured
CN(C(=O)OCc1ccccc1)C1CCCc2ccc(N3CCN(C4CCCC4)CC3)cc21 (stereo not shown) [MDW-1-140, Benzyl (7-(4-cyclopentylpiperazin-1-yl)-1,2,3,4-tetrahydronaphthalen-1-yl)(methyl)carbamate] | 2.1 | 28 | 1460 | 1110 | – | – | 2 | 41 | 457 | 462 | 4060 | – | 509 | 367 | 263 | 86 | 1480 | 1020 | 547 | 211 | Ki (5-ht5a): 2500 nM; Ki (M4): 2980 nM; Ki (KOR): ≥ 10000 nM; Ki (Alpha1D): 1810 nM; Ki (M5): 3690 nM; Ki (H3): 965 nM; Ki (D5): 2600 nM
